Test results: publication PMC8086230 (Acta Pharmacologica Sinica, 2021)
Read-outs that look alike come from different tables or passages of the source.

Assays:
[1] = not given; remark: listed apart in the source
[2] = BCS classification stated in the discussion
mock HEK-293 cells = test: Passive diffusion in mock HEK-293 cells; type: in vitro ADME, human
human renal 11β-HSD2 = biological target: T1, human renal 11β-HSD2 (Homo sapiens, UniProt P80365); type: biochemical; settings: read-out: Km for human 11β-HSD2
T1 sequence (P80365 1-405): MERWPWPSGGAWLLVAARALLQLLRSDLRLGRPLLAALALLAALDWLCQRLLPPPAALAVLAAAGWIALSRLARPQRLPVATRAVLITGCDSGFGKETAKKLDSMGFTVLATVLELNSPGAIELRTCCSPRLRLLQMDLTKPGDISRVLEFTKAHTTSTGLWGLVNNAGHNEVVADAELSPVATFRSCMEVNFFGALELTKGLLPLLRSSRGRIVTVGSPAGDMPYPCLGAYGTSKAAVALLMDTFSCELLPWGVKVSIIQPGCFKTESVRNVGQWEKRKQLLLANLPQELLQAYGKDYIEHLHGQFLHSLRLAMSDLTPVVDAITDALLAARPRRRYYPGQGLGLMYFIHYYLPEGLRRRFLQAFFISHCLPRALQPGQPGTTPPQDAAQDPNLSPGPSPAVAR

[3] = after orally dosing LianhuaQingwen, 12 capsules/person

CC1(C)[C@@H](O[C@@H]2O[C@H](C(=O)O)[C@@H](O)[C@H](O)[C@H]2O[C@@H]2O[C@H](C(=O)O)[C@@H](O)[C@H](O)[C@H]2O)CC[C@]2(C)[C@H]3C(=O)C=C4[C@@H]5C[C@](C)(C(=O)O)CC[C@]5(C)CC[C@@]4(C)[C@]3(C)CC[C@@H]12 [Compound 3, Licorice saponin H2]
Presence in rat samples (rat, in vivo, po): Plasma, bile, urine, feces

O=C1C[C@@H](c2ccc(O[C@@H]3O[C@H](CO)[C@@H](O)[C@H](O)[C@H]3O)cc2)Oc2cc(O)ccc21 [Compound 21, Liquiritin]
Presence in human samples ([1]; in vivo, po): Plasma, urine
Presence in rat samples (rat, in vivo, po): Plasma, bile, urine, feces
BCS Class [2]: BCS Class III
transport rate, membrane permeation in mock cells (mock HEK-293 cells; human, 10 min, 50 µmol/L): < 5 pmol·min^−1·mg^−1 protein

22α-hydroxyglycyrrhetic acid-3-O-sulfate
Detection in human plasma and urine samples ([1]; in vivo, po): not detected
Detection in rat plasma or urine samples (rat, in vivo, po): not detected

O=C(/C=C/c1ccc(O[C@@H]2O[C@H](CO)[C@@H](O)[C@H](O)[C@H]2O)cc1)c1ccc(O)cc1O [Compound 24, Isoliquiritin]
Presence in human samples [1, 3]: Plasma, urine
Presence in rat samples (after orally dosing LianhuaQingwen, 3.78 g/kg): Plasma, bile, urine, feces

O=C(/C=C/c1ccc(O)cc1)c1ccc(O)cc1O [Compound 26, Isoliquiritigenin]
Presence in human samples [1, 3]: Plasma, urine, feces

CC1(C(=O)OC2OC(C(=O)O)C(O)C(O)C2O)CC(O)C2(C)CCC3(C)C(=CC(=O)C4C5(C)CCC(OS(=O)(=O)O)C(C)(C)C5CCC43C)C2C1 (stereo not drawn) [22α-hydroxyglycyrrhetic acid-3-O-sulfate-30-O-glucuronide]
Detection in human plasma and urine samples ([1]; in vivo, po): not detected
Detection in rat plasma or urine samples (rat, in vivo, po): not detected

C[C@]12CCC(=O)C=C1CC[C@@H]1[C@@H]2[C@@H](O)C[C@@]2(C)[C@H]1CC[C@]2(O)C(=O)CO [cortisol]
Km (human renal 11β-HSD2): 0.045 µM

CC1(C)[C@@H](O[C@H]2O[C@H](C(=O)O)[C@@H](O)[C@H](O)[C@H]2O[C@@H]2O[C@H](C(=O)O)[C@@H](O)[C@H](O)[C@H]2O)CC[C@]2(C)[C@H]3C(=O)C=C4[C@@H]5C[C@@](C)(C(=O)O)CC[C@]5(C)CC[C@@]4(C)[C@]3(C)CC[C@@H]12 [Compound 1, Glycyrrhizin]
Presence in human samples ([1]; in vivo, po): Plasma, urine, feces
Presence in rat samples (rat, in vivo, po): Plasma, bile, urine, feces
BCS Class [2]: BCS Class III
transport rate, membrane permeation in mock cells (mock HEK-293 cells): < 5 pmol·min^−1·mg^−1 protein

O=C(CCc1ccc(O)cc1)c1ccc(O)cc1O [Compound M27R, Davidigenin]
Presence in human samples ([1]; in vivo, po): Urine
